Test results from PubChem BioAssay AID1340 (NMMLSC, 2008).

Target: Ras-related C3 botulinum toxin substrate 1 (Homo sapiens) (UniProt P63000)
Experiment: inhibition of wildtype Rac1 nucleotide loading – biochemical, multiplex bead flow cytometry, dose response (AID 1340)
Details: GST-Rac1 beads, Bodipy-FL-GTP binding

SMILES	EC50
COc1cc(/C=N/Nc2nnc3c(n2)[nH]c2ccccc23)ccc1O	0.634 µM
COc1ccc(C(=O)/C=C/Nc2ccc(S(=O)(=O)Nc3nc(C)cc(C)n3)cc2)cc1OC	3.12 µM
NC(=S)N=Nc1c(O)[nH]c2ccc(F)cc12	3.46 µM
